According to patent publication US9751840B2, “R-7-(3-aminomethyl-4-methoxyimino-3-methyl-pyrrolidin-1-yl)-1-cyclopropyl-6-fluoro-4-oxo-acid and L-aspartic acid salt, process for the preparation thereof and pharmaceutical composition comprising the same for antimicrobial” (ARIBIO CO. LTD., priority 2009, dated 2017):
Values after ≈ are worked out from the molar mass of the structure shown.

Columns and labels:
[1] = Stability test in distilled water; assay type: physicochemical; conditions: 30 mg in 100 ml distilled water
Solubility test = assay type: physicochemical; conditions: room temperature, water
Male ICR mice = experiment: Single dose toxicity in mice (LD50); conditions: single intraperitoneal dose, observed 14 days
Description: The following experiment was performed in order to observe the degree of toxicity of the L-aspartate according to the present invention.
Male ICR mice were used as experimental animals. 5 male ICR mice were divided into 6 dose groups, respectively and fasted except for water for 24 hours.

SMILES | Content (%) 60? (after 3 weeks) [1] [%] | Content (%) Initial [1] [%] | Content (%) Room temperature (after 3 weeks) [1] [%] | solubility (Solubility test) [mg/mL] | Lethal dose 50 (Male ICR mice) [mg/kg]
CON=C1CN(c2nc3c(cc2F)c(=O)c(C(=O)O)cn3C2CC2)C[C@@]1(C)CN.Cc1ccc(S(=O)(=O)O)cc1 | 87.3 | 98.6 | 98.1 | 5.78 | 
CON=C1CN(c2nc3c(cc2F)c(=O)c(C(=O)O)cn3C2CC2)C[C@@]1(C)CN.O=CO [Formate (Comparative Example 5)] | 75.1 | 89.7 | 89.7 | 27.5 | 
CON=C1CN(c2nc3c(cc2F)c(=O)c(C(=O)O)cn3C2CC2)C[C@@]1(C)CN [Free form (Comparative Example 2)] | 34.6 | 97.3 | 96.8 | 2.79 (≈ 6.92 mM) | 
CON=C1CN(c2nc3c(cc2F)c(=O)c(C(=O)O)cn3C2CC2)C[C@@]1(C)CN.CS(=O)(=O)O [Methanesulfonate (Comparative Example 4)] | 89.6 | 96.4 | 96.8 | 99.1 | 
CON=C1CN(c2nc3c(cc2F)c(=O)c(C(=O)O)cn3C2CC2)C[C@@]1(C)CN.O=P(O)(O)O [Phosphate (Comparative Example 6)] | 91.2 | 98.1 | 97.9 | 57.8 | 176
